Source: ChEMBL document CHEMBL5614417, “Discovery of AMPs from random peptides via deep learning-based model and biological activity validation” (Eur J Med Chem, 2024)
Activity calls are given as the source filed them.

Legend:
[1] = test system: Staphylococcus epidermidis; assay: Antibacterial activity against Staphylococcus epidermidis ATCC 12228 incubated for 18 hrs by visual inspection method; format: functional
Bacillus subtilis = assay: Antibacterial activity against Bacillus subtilis ATCC 23857 incubated for 18 hrs by visual inspection method; format: functional
Staphylococcus aureus [2] = assay: Antibacterial activity against methicillin resistant Staphylococcus aureus 4 incubated for 18 hrs by visual inspection method; format: functional
Staphylococcus aureus [3] = assay: Antibacterial activity against Staphylococcus aureus ATCC 25923 incubated for 18 hrs by visual inspection method; format: functional
Staphylococcus aureus [4] = assay: Antibacterial activity against Staphylococcus aureus infected in BALB/c mouse at 10 mg/kg administered every 4 hrs for 3 doses and measured after 4 hrs post last dose; format: functional, organism-based; details: time 16.0 hrs
Staphylococcus aureus [5] = assay: Antibacterial activity against methicillin resistant Staphylococcus aureus 3 incubated for 18 hrs by visual inspection method; format: functional
Staphylococcus aureus [6] = assay: Antibacterial activity against methicillin resistant Staphylococcus aureus 2 incubated for 18 hrs by visual inspection method; format: functional
Staphylococcus aureus [7] = assay: Antibacterial activity against methicillin resistant Staphylococcus aureus 1 incubated for 18 hrs by visual inspection method; format: functional

CN[C@H](CC(C)C)C(=O)N[C@H]1C(=O)N[C@@H](CC(N)=O)C(=O)N[C@H]2C(=O)N[C@H]3C(=O)N[C@H](C(=O)N[C@H](C(=O)O)c4cc(O)cc(O)c4-c4cc3ccc4O)[C@H](O)c3ccc(c(Cl)c3)Oc3cc2cc(c3O[C@@H]2O[C@H](CO)[C@@H](O)[C@H](O)[C@H]2O[C@H]2C[C@](C)(N)[C@H](O)[C@H](C)O2)Oc2ccc(cc2Cl)[C@H]1O [VANCOMYCIN]
0.94 µg/mL: MIC [1] | MIC (Bacillus subtilis) | MIC (Staphylococcus aureus [2]) | MIC (Staphylococcus aureus [3]) | MIC (Staphylococcus aureus [5]) | MIC (Staphylococcus aureus [6]) | MIC (Staphylococcus aureus [7])
active: Activity (Staphylococcus aureus [4])
